Counter-ions that a name gives are not always drawn.
Target: SHP2 (Homo sapiens (Human), UniProt Q06124)
Assay: SHP2 Allosteric Inhibition Assay (DiFMUP prompt fluorescence)
Format: biochemical
Details: 0.25 nM SHP2 activated with 0.5 μM peptide IRS1_pY1172(dPEG8)pY1222; substrate DiFMUP 100 μM; 25° C.

| Structure (SMILES) | IC50 [nM] |
| --- | --- |
| C[C@@H]1OCC2(CCN(c3cnc4c(N5CCN(CC(=O)O)c6cc(C#N)ccc65)n[nH]c4n3)CC2)[C@@H]1N [Compound 423, 2-(4-{6-[(3S,4S)-4-amino-3-methyl-2-oxa-8-azaspiro[4.5]decan-8-yl]-1H-pyrazolo[3,4-b]pyrazin-3-yl}-7-cyano-1,2,3,4-tetrahydroquinoxalin-1-yl)acetic acid] | < 1000 |
| C[C@@H]1OCC2(CCN(c3cnc4c(N5CCN(C)c6cc(-c7nccs7)ccc65)n[nH]c4n3)CC2)[C@@H]1N [Compound 415] | < 1000 |
| C[C@@H]1OCC2(CCN(c3cnc4c(N5CCNc6ncccc65)n[nH]c4n3)CC2)[C@@H]1N [Compound 247] | < 1000 |
| C[C@@H]1OCC2(CCN(c3cnc4c(N5CC[C@H](C(F)F)c6cc(C#N)ccc65)n[nH]c4n3)CC2)[C@@H]1N [Compound 327] | < 1000 |
| C[C@@H]1OCC2(CCN(c3cnc4c(N5CCN([C@H]6CCOC6)c6cc(C#N)ccc65)n[nH]c4n3)CC2)[C@@H]1N [Compound 402] | < 1000 |
| CC1c2ccccc2CCN1c1n[nH]c2nc(N3CCC(C)(CN)CC3)cnc12 (stereo not drawn) [Compound 169] | < 1000 |
| CC1(CN)CCN(c2cnc3c(N4CCOc5ccccc54)n[nH]c3n2)CC1 [Compound 163] | < 1000 |
| C[C@@H]1OCC2(CCN(c3cnc4c(N5CCCc6c5ccc(C#N)c6[C@H]5CC(=O)N(C)C5)n[nH]c4n3)CC2)[C@@H]1N [Compound 525] | < 1000 |
| CN(c1ccnc(N)c1)c1n[nH]c2nc(N3CCC(C)(N)CC3)cnc12 [Compound 491, N4-[6-(4-amino-4-methyl-1-piperidyl)-1H-pyrazolo[3,4-b]pyrazin-3-yl]-N4-methyl-pyridine-2,4-diamine] | 1000 to 10000 |
| COc1ccc2c(n1)CCCN2c1n[nH]c2nc(N3CCC4(CC3)CO[C@@H](C)[C@H]4N)cnc12 [Compound 315] | < 1000 |
| CC1(CN)CCN(c2cnc3c(N4CCCc5ccccc54)n[nH]c3n2)CC1 [Compound 33, (1-(3-(3,4-dihydroquinolin-1(2H)-yl)-1H-pyrazolo[3,4-b]pyrazin-6-yl)-4-methylpiperidin-4-yl)methanamine] | < 1000 |
| C[C@@H]1OCC2(CCN(c3cnc4c(N5CCCc6nc(-c7ccn(C)n7)ccc65)n[nH]c4n3)CC2)[C@@H]1N [Compound 280, (3S,4S)-3-methyl-8-{3-[6-(1-methyl-1H-pyrazol-3-yl)-1,2,3,4-tetrahydro-1,5-naphthyridin-1-yl]-1H-pyrazolo[3,4-b]pyrazin-6-yl}-2-oxa-8-azaspiro[4.5]decan-4-amine] | < 1000 |
| CC(C)c1cccc2c1CCCN2c1n[nH]c2nc(N3CCC(C)(CN)CC3)cnc12 [Compound 91] | < 1000 |
| C[C@@H]1OCC2(CCN(c3cnc4c(N5CC(=O)N(C)c6ccccc65)n[nH]c4n3)CC2)[C@@H]1N [Compound 238] | < 1000 |
| CC1(N)CCN(c2cnc3c(-n4cnc5ccccc54)n[nH]c3n2)CC1 [Compound 20, 1-(3-(1H-benzo[d]imidazol-1-yl)-1H-pyrazolo[3,4-b]pyrazin-6-yl)-4-methylpiperidin-4-amine] | 1000 to 10000 |
| CC1(N)CCN(c2cnc3c(Oc4ncccc4Cl)n[nH]c3n2)CC1 [Compound 502, 1-(3-((3-chloropyridin-2-yl)oxy)-1H-pyrazolo[3,4-b]pyrazin-6-yl)-4-methylpiperidin-4-amine dihydrochloride] | < 1000 |

| Structure (SMILES) | IC50 [nM] |
| --- | --- |
| N[C@H]1CCC[C@@]12CCN(c1cnc3c(N4CCCc5ncccc54)n[nH]c3n1)C2 (stereo in doubt) [Compound 205, rel-(5S,6S)-2-(3-(3,4-dihydro-1,5-naphthyridin-1(2H)-yl)-1H-pyrazolo[3,4-b]pyrazin-6-yl)-2-azaspiro[4.4]nonan-6-amine] | 1000 to 10000 |
| Cc1cccc2c1N(C1CC1)CCN2c1n[nH]c2nc(N3CCC4(CC3)CO[C@@H](C)[C@H]4N)cnc12 [Compound 379] | < 1000 |
| C=C(c1ccccc1)c1n[nH]c2nc(N3CCC(C)(CN)CC3)cnc12 [Compound 16, (4-methyl-1-(3-(1-phenylvinyl)-1H-pyrazolo[3,4-b]pyrazin-6-yl)piperidin-4-yl)methanamine] | < 1000 |
| CNCCN(C)c1n[nH]c2nc(N3CCC(C)(CN)CC3)cnc12 [Compound 474] | ≥ 10000 |
| CC(C)NC(=O)c1ccc2c(n1)[C@@H](C)CCN2c1n[nH]c2nc(N3CCC4(CC3)CO[C@@H](C)[C@H]4N)cnc12 [Compound 446] | < 1000 |
| NC1=NC2(CCN(c3cnc4c(N5CCCc6ncccc65)n[nH]c4n3)CC2)CO1 [Compound 216, 8-(3-(3,4-dihydro-1,5-naphthyridin-1(2H)-yl)-1H-pyrazolo[3,4-b]pyrazin-6-yl)-3-oxa-1,8-diazaspiro[4.5]dec-1-en-2-amine hydrochloride] | < 1000 |
| C[C@@H]1OCC2(CCN(c3cnc4c(N5CCCc6nc(-n7cnnc7)ccc65)n[nH]c4n3)CC2)[C@@H]1N [Compound 308] | < 1000 |
| C[C@@H]1OCC2(CCN(c3cnc4c(N5CCCc6nc(C7=CCCCC7)ccc65)n[nH]c4n3)CC2)[C@@H]1N [Compound 396, (3S,4S)-8-{3-[6-(cyclohex-1-en-1-yl)-1,2,3,4-tetrahydro-1,5-naphthyridin-1-yl]-1H-pyrazolo[3,4-b]pyrazin-6-yl}-3-methyl-2-oxa-8-azaspiro[4.5]decan-4-amine hydrochloride] | < 1000 |
| C[C@@H]1OCC2(CCN(c3cnc4c(N5CCN([C@H]6C[C@@](C)(O)C6)c6cc(C#N)ccc65)n[nH]c4n3)CC2)[C@@H]1N [Compound 526] | < 1000 |
| Cn1cc(-c2c(C#N)ccc3c2CCCN3c2n[nH]c3nc(N4CCC(C)(CN)CC4)cnc23)cn1 [Compound 131] | < 1000 |
| C[C@@H]1OCC2(CCN(c3cnc4c(N5CCCc6c5ccc(C#N)c6S(C)(=O)=O)n[nH]c4n3)CC2)[C@@H]1N [Compound 388] | 1000 to 10000 |
| CC1(N)CCN(c2cnc3c(Sc4cccc(Cl)c4Cl)n[nH]c3n2)CC1 [Compound 13, 1-(3-((2,3-dichlorophenyl)thio)-1H-pyrazolo[3,4-b]pyrazin-6-yl)-4-methylpiperidin-4-amine] | < 1000 |
| C[C@@H]1OCC2(CCN(c3cnc4c(N5CCCc6sccc65)n[nH]c4n3)CC2)[C@@H]1N [Compound 394] | < 1000 |
| C[C@@H]1OCC2(CCN(c3cnc4c(N5CCCc6nc(-n7cncn7)ccc65)n[nH]c4n3)CC2)[C@@H]1N [Compound 279] | < 1000 |
| Cc1nnc(-c2c(Cl)ccc3c2CCCN3c2n[nH]c3nc(N4CCC5(CC4)CO[C@@H](C)[C@H]5N)cnc23)o1 [Compound 429, (3S,4S)-8-{3-[6-chloro-5-(5-methyl-1,3,4-oxadiazol-2-yl)-1,2,3,4-tetrahydroquinolin-1-yl]-1H-pyrazolo[3,4-b]pyrazin-6-yl}-3-methyl-2-oxa-8-azaspiro[4.5]decan-4-amine] | < 1000 |
| N[C@@H]1CCCC12CCN(c1cnc3c(N4CCCc5ncccc54)n[nH]c3n1)CC2 [Compound 212] | < 1000 |

Further lines, results first:

| IC50 [nM] | Structure (SMILES) |
| --- | --- |
| < 1000 | CC(=O)N1CCN(c2n[nH]c3nc(N4CCC(C)(CN)CC4)cnc23)c2ccc(C#N)cc21 [Compound 187] |
| < 1000 | C[C@@H]1C[C@@H](CN)CCN1c1cnc2c(N3CCCc4ncccc43)n[nH]c2n1 (racemic) [Compound 104, ((2R,4S)-1-(3-(3,4-dihydro-1,5-naphthyridin-1(2H)-yl)-1H-pyrazolo[3,4-b]pyrazin-6-yl)-2-methylpiperidin-4-yl)methanamine] |
| < 1000 | Cc1nnc(-c2ccc3c(n2)CCCN3c2n[nH]c3nc(N4CCC5(CC4)CO[C@@H](C)[C@H]5N)cnc23)s1 [Compound 407] |
| < 1000 | N[C@H]1CCC12CCN(c1cnc3c(N4CCCc5ncccc54)n[nH]c3n1)CC2 [Compound 340, (1S)-7-[3-(1,2,3,4-tetrahydro-1,5-naphthyridin-1-yl)-1H-pyrazolo[3,4-b]pyrazin-6-yl]-7-azaspiro[3.5]nonan-1-amine] |
| < 1000 | C[C@@H]1OCC2(CCN(c3cnc4c(N5CCCc6nc(-c7cnccn7)ccc65)n[nH]c4n3)CC2)[C@@H]1N [Compound 350] |
| < 1000 | Cc1cccc2c1CCCN2c1n[nH]c2nc(N3CCC4(CC3)CO[C@@H](C)[C@H]4N)cnc12 [Compound 330] |
| < 1000 | CCC1CCN(c2n[nH]c3nc(N4CCC(C)(CN)CC4)cnc23)c2ccccc21 (stereo not drawn) [Compound 84] |
| 1000 to 10000 | C[C@@H]1OCC2(CCN(c3cnc4c(N5CC(=O)Nc6ncncc65)n[nH]c4n3)CC2)[C@@H]1N [Compound 322] |
| < 1000 | C[C@@H]1OCC2(CCN(c3cnc4c(N5CCN(C6CC(F)(F)C6)c6cc(C#N)ccc65)n[nH]c4n3)CC2)[C@@H]1N [Compound 530] |
| < 1000 | C[C@@H]1CCN(c2n[nH]c3nc(N4CCC5(CC4)CO[C@@H](C)[C@H]5N)cnc23)c2ccc(C#N)c(F)c21 (single isomer, unassigned) [Compound 229] |
| < 1000 | C[C@@H]1CCN(c2n[nH]c3nc(N4CCC5(CC4)CO[C@@H](C)[C@H]5N)cnc23)c2cccc(-c3cnn(C)c3)c21 [Compound 277] |
| < 1000 | CNC(=O)Cc1cccc2c1CCCN2c1n[nH]c2nc(N3CCC4(CC3)CO[C@@H](C)[C@H]4N)cnc12 [Compound 434, 2-(1-{6-[(3S,4S)-4-amino-3-methyl-2-oxa-8-azaspiro[4.5]decan-8-yl]-1H-pyrazolo[3,4-b]pyrazin-3-yl}-1,2,3,4-tetrahydroquinolin-5-yl)-N-methylacetamide hydrochloride] |
| < 1000 | C[C@@H]1OCC2(CCN(c3cnc4c(N5CCCc6ccccc65)n[nH]c4n3)CC2)[C@@H]1N [Compound 355] |
| < 1000 | CC1(N)CCN(c2cnc3c(Sc4cccnc4C(F)(F)F)n[nH]c3n2)CC1 [Compound 8, 4-methyl-1-(3-((2-(trifluoromethyl)pyridin-3-yl)thio)-1H-pyrazolo[3,4-b]pyrazin-6-yl)piperidin-4-amine] |
| < 1000 | CC1(CN)CCN(c2cnc3c(N4CCc5ccccc54)n[nH]c3n2)CC1 [Compound 118] |
| < 1000 | C[C@@H]1OCC2(CCN(c3cnc4c(N5CCCc6nc(N7CC[C@H](O)C7)ccc65)n[nH]c4n3)CC2)[C@@H]1N [Compound 261, (3S)-1-(5-{6-[(3S,4S)-4-amino-3-methyl-2-oxa-8-azaspiro[4.5]decan-8-yl]-1H-pyrazolo[3,4-b]pyrazin-3-yl}-5,6,7,8-tetrahydro-1,5-naphthyridin-2-yl)pyrrolidin-3-ol] |
